Results taken from ChEMBL document CHEMBL6074685, “Design, synthesis and biological evaluation of novel diaryl-substituted fused nitrogen heterocycles as tubulin polymerization inhibitors to overcome multidrug resistance in vitro and in vivo” (Eur J Med Chem, 2025).
Activity calls are given as the source filed them. No cut-off for these calls is given here.

What was measured:
[1] = Toxicity in BALB/c mouse implanted with human A549/T cell assessed as change in body weight at 15 mg/kg, ip administered every 2 days; assay type: organism-based; settings: in vivo, 48 h, time 2 day
[2] = Toxicity in BALB/c mouse implanted with human A549/T cell assessed as red blood cell distribution width-cell volume at 30 mg/kg, ip administered every 2 days and measured after 2 weeks (reference value: 25fL); assay type: organism-based; settings: in vivo, 336 h
Tubulin (Homo sapiens) [3] = molecular target: T1, Tubulin (Homo sapiens) (UniProt P68371+Q9H4B7+P0DPH7+P68366+Q13509+Q71U36+P04350+Q3ZCM7+P07437+P68363+Q9BQE3+Q6PEY2+Q13885+Q9BVA1+Q9BUF5); assay: Disruption of microtubule network in human A549/T cell at 100 to 200 nM incubated for 24 hrs by immunofluorescence staining based confocal microscopy analysis; settings: dose 100-200 nM
A549/TR [4] = assay: Induction of apoptosis in human A549/T cell at 125 nM incubated for 48 hrs by V-FITC/PI staining based flow cytometry analysis relative to control; assay type: functional
[5] = Toxicity in BALB/c mouse implanted with human A549/T cell assessed as red blood cell distribution width-cell size at 30 mg/kg, ip administered every 2 days and measured after 2 weeks (reference value: 12.1 fL); assay type: organism-based; settings: in vivo, 336 h
[6] = Metabolic stability in mouse liver microsome assessed as intrinsic clearance measured upto 50 mins by LC-MS/MS analysis; assay type: ADME; settings: liver microsomes, read-out: CLH
A549 [7] = assay: Induction of apoptosis in human A549 cells at 100 nM incubated for 48 hrs by V-FITC/PI staining based flow cytometry analysis relative to control; assay type: functional
A549 [8] = assay: Effect on p-gp expression in human A549 cells by immunoblotting analysis; assay type: functional, cell-based
NCI-H1299 = assay: Antiproliferative activity against human NCI-H1299 cells assessed as cell growth inhibition incubated for 48 hrs by MTT assay; assay type: functional, cell-based; settings: NCI-H1299, 48 h
[9] = Cytotoxicity against human MCF-10A cells assessed as inhibition of cell growth at 2 nM incubated for 48 hrs by MTT assay relative to control; assay type: toxicity, cell-based
A549/TR [10] = assay: Downregulation of P-gp level in human A549/T cell measured after 48 hrs by immunoblotting analysis; assay type: functional, cell-based; settings: dose 62.5-500 nM
A549 [11] = assay: Induction of apoptosis in human A549 cells at 50 nM incubated for 48 hrs by V-FITC/PI staining based flow cytometry analysis relative to control; assay type: functional
Tubulin (Homo sapiens) [12] = molecular target: T1, Tubulin (Homo sapiens); assay: Disruption of microtubule network in human A549/T cell assessed as change in microtubule morphology at 100 to 200 nM incubated for 24 hrs by immunofluorescence staining based confocal microscopy analysis; settings: dose 100-200 nM
[13] = Toxicity in BALB/c mouse implanted with human A549/T cell assessed as mean platelet volume at 30 mg/kg, ip administered every 2 days and measured after 2 weeks (reference value: 10.1 fL); assay type: organism-based; settings: in vivo, 336 h
[14] = Toxicity in BALB/c mouse implanted with human A549/T cell assessed as kidney damage at 15 to 30 mg/kg, ip administered every 2 days by H and E staining based analysis; assay type: organism-based; settings: in vivo, 48 h, dose 15-30 mg/kg, time 2 day
[15] = Toxicity in BALB/c mouse implanted with human A549/T cell assessed as platelet distribution width at 30 mg/kg, ip administered every 2 days and measured after 2 weeks (reference value: 15.3 fL); assay type: organism-based; settings: in vivo, 336 h
[16] = Metabolic stability in human liver microsome assessed as parent compound remaining measured upto 50 mins by LC-MS/MS analysis; assay type: ADME; settings: microsomes
A549/TR [17] = assay: Effect on p-gp expression in human A549/T cell by immunoblotting analysis; assay type: functional, cell-based
[18] = Toxicity in BALB/c mouse implanted with human A549/T cell assessed as lymphocyte count at 30 mg/kg, ip administered every 2 days and measured after 2 weeks (reference value: 56%); assay type: organism-based; settings: in vivo, 336 h
Tubulin (Homo sapiens) [19] = molecular target: T1, Tubulin (Homo sapiens); assay: Disruption of microtubule network in human A549 cells at 50 to 100 nM incubated for 24 hrs by immunofluorescence staining based confocal microscopy analysis; assay type: cell-based; settings: dose 50-100 nM
[20] = Toxicity in BALB/c mouse implanted with human A549/T cell assessed as MCH level at 30 mg/kg, ip administered every 2 days and measured after 2 weeks (reference value: 29.2 pg); assay type: organism-based; settings: in vivo, 336 h
[21] = Toxicity in BALB/c mouse implanted with human A549/T cell assessed as lung damage at 15 to 30 mg/kg, ip administered every 2 days by H and E staining based analysis; assay type: organism-based; settings: in vivo, 48 h, dose 15-30 mg/kg, time 2 day
[22] = Toxicity in BALB/c mouse implanted with human A549/T cell assessed as lymphocyte count at 15 mg/kg, ip administered every 2 days and measured after 2 weeks (reference value: […]); assay type: organism-based; settings: in vivo, 336 h
[23] = Toxicity in BALB/c mouse implanted with human A549/T cell assessed as red blood cell distribution width-cell size at 15 mg/kg, ip administered every 2 days and measured after 2 weeks (reference value: 12.1 fL); assay type: organism-based; settings: in vivo, 336 h
[24] = Toxicity in BALB/c mouse implanted with human A549/T cell assessed as WBC count at 30 mg/kg, ip administered every 2 days and measured after 2 weeks (reference value: 1.3 10^9/L); assay type: organism-based; settings: in vivo, 336 h
[25] = Toxicity in BALB/c mouse implanted with human A549/T cell assessed as Plate-letocrit at 30 mg/kg, ip administered every 2 days and measured after 2 weeks (reference value: 0.549%); assay type: organism-based; settings: in vivo, 336 h
[26] = Toxicity in BALB/c mouse implanted with human A549/T cell assessed as monocyte count at 30 mg/kg, ip administered every 2 days and measured after 2 weeks (reference value: 30.6 %); assay type: organism-based; settings: in vivo, 336 h
[27] = Cytotoxicity against human MCF-10A cells assessed as inhibition of cell growth at 100 nM incubated for 48 hrs by MTT assay relative to control; assay type: toxicity, cell-based
[28] = Toxicity in BALB/c mouse implanted with human A549/T cell assessed as monocyte count at 15 mg/kg, ip administered every 2 days and measured after 2 weeks (reference value: 30.6 %); assay type: organism-based; settings: in vivo, 336 h

Structure (SMILES): COc1ccc(-c2cc(-c3ccc(OC)c(OC)c3OC)c3nc[nH]c3c2)cc1N
- Activity [1]: Non-toxic
- Activity [2]: 25 fL
- Activity (Tubulin (Homo sapiens) [3]): Active
- Activity (A549/TR [4]): 54.01%
- Activity [5]: 12.3 fL
- CLint scaled [6]: 87 mL/min/kg
- Activity (A549 [7]): 44.42%
- Activity (A549 [8]): inactive
- IC50 (NCI-H1299): 63 nM
- inhibition at 48 h, 0.002 µM [9]: 1%
- Activity (A549/TR [10]): Dose-dependent-effect
- Activity (A549 [11]): 34.2%
- Activity (Tubulin (Homo sapiens) [12]): Active
- Activity [13]: 10.2 fL
- Activity [14]: Non-toxic
- Activity [15]: 16.9 fL
- Stability [16]: Stable
- Activity (A549/TR [17]): Active
- Activity [18]: 55.2%
- Activity (Tubulin (Homo sapiens) [19]): Active
- Activity [20]: 31.6 pg
- Activity [21]: Non-toxic
- Activity [22]: 1.42 10^9/L
- Activity [23]: 12.1 fL
- Activity [24]: 2.4 10^9/L
- Activity [25]: 0.425%
- Activity [26]: 23.4%
- inhibition at 48 h, 0.1 µM [27]: 47%
- Activity [28]: 29.5%
